What was measured:
[1] = Inhibition of Pseudomonas aeruginosa AmpC expressed in Escherichia coli BL21(DE3) using cephalothin as reporter substrate incubated for 300 secs by spectrophotometric assay
[2] = Inhibition of Klebsiella pneumoniae KPC2 using cephalothin as reporter substrate incubated for 300 secs by spectrophotometric assay
[3] = Inhibition of bacterial OXA-24 using cephalothin as reporter substrate incubated for 300 secs by spectrophotometric assay; parameters: species or system Bacteria
[4] = Competitive inhibition of recombinant GES-5 expressed in Escherichia coli BL21(DE3) using nitrocefin substrate by spectrophotometry
[5] = Inhibition of bacterial NDM1 using cephalothin as reporter substrate incubated for 300 secs by spectrophotometric assay; parameters: species or system Bacteria

SMILES	Ki [1]	Ki [2]	Ki [3]	Ki [4]	Ki [5]
NCc1ccc2sc(B(O)O)cc2c1	0.05 µM	4.4 µM	96 µM	15 µM	5.5 µM
CC(C)(C)OC(=O)Nc1cccc2cc(B(O)O)sc12	1.4 µM	1.4 µM	64 µM	5.7 µM	11 µM
OB(O)c1cc2cc(CBr)ccc2s1	0.07 µM	2.8 µM	67 µM	8.9 µM	5.9 µM
O=CN(C=O)Cc1ccc2sc(B(O)O)cc2c1	0.04 µM	–	–	24 µM	–
CC(C)(C)OC(=O)c1cccc2cc(B(O)O)sc12	1.3 µM	3.2 µM	27 µM	17 µM	3.2 µM
O=C(O)c1cccc2cc(B(O)O)sc12	0.42 µM	4.9 µM	16 µM	0.16 µM	3 µM

Reference: ChEMBL document CHEMBL4339230, “X-ray Crystallography Deciphers the Activity of Broad-Spectrum Boronic Acid β-Lactamase Inhibitors” (ACS Med Chem Lett, 2019)
